Series [1] deals with 3T3-L1 Adipocytes. Briefly: Free fatty acid levels in cultured mouse 3T3-L1 adipocytes, isoproterenol stimulated (Example 2). Conditions: test peptides 25 μM; isoproterenol 1 nM. Format: cell-based. The essentials: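 3T3-L1 cells differentiated 12–17 days into adipocytes, then exposed to test peptides at 25 μM final for 18–20 h, then 1 h, then 3 h with isoproterenol (1 nM) at 37 °C. Free fatty acids in the medium measured colorimetrically at 540 nm, corrected for untreated background and expressed relative to isoproterenol-only cells.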

The subject of series [2] is Diet Induced Obese (DIO) mice. Put plainly: Body weight, blood glucose and fat mass in Diet Induced Obese mice, 10 days (Example 6). As to conditions: male DIO mice; 10 days twice daily intraperitoneal 15 mg/kg; N = 8; mean. Format: in vivo, Male C57BL/6 mice. As for the experimental part:
Animals were randomized to treatment groups based on blood glucose levels and body weight. The peptides of the invention were administered to two groups of male DIG mice once or twice daily by subcutaneous or intraperitoneal injection at a dose of 15 mg/kg/dose for 10 days (N=8 animals per treatment group). An additional group of male DIG mice (n=8) received vehicle (water or saline) alone. Body weight, blood glucose levels and food intake were monitored. Body mass distribution (fat vs lean) was determined by quantitative whole body NMR prior to dosing and at the end of dosing.

The nature of series [3]: Stability in mouse plasma, peptides 10 uM (Example 15). Format: in vitro ADME. Conditions: mouse plasma 37° C., peptide 10 uM; for remaining at 0.25 h, 10 uM / remaining at 0.5 h, 10 uM / remaining at 1 h, 10 uM / remaining at 2 h, 10 uM / remaining at 3 h, 10 uM: pooled mouse plasma; for remaining at 0.25 h, 10 uM: 15 min, read-out: % Remaining at Each Time Point: 15 min; for remaining at 0.5 h, 10 uM: 30 min, read-out: % Remaining at Each Time Point: 30 min; for remaining at 1 h, 10 uM: 60 min, read-out: % Remaining at Each Time Point: 60 min; for remaining at 2 h, 10 uM: 120 min, read-out: % Remaining at Each Time Point: 120 min; for remaining at 3 h, 10 uM: 180 min, read-out: % Remaining at Each Time Point: 180 min. How it is done: Peptides (10 uM) were incubated in pooled mouse plasma at 37° C. and samples were removed and immediately analyzed for the concentration of intact peptide by LC/MS/MS over the course of 3 hours. The percent of peptide remaining in plasma at each time point was calculated relative to the initial peak area (Table 13).

The nature of series [4]: Stability in mouse plasma, peptides 100 uM (Example 14). Type of series: in vitro ADME. As to conditions: mouse plasma 37° C., peptide 100 uM; for remaining at 0.25 h, 100 uM / remaining at 0.5 h, 100 uM / remaining at 1 h, 100 uM / remaining at 2 h, 100 uM / remaining at 3 h, 100 uM: pooled mouse plasma; for remaining at 0.25 h, 100 uM: 15 min, read-out: % Remaining at Each Time Point: 15 min; for remaining at 0.5 h, 100 uM: 30 min, read-out: % Remaining at Each Time Point: 30 min; for remaining at 1 h, 100 uM: 60 min, read-out: % Remaining at Each Time Point: 60 min; for remaining at 2 h, 100 uM: 120 min, read-out: % Remaining at Each Time Point: 120 min; for remaining at 3 h, 100 uM: 180 min, read-out: % Remaining at Each Time Point: 180 min. How it is done: Peptides (100 uM) were incubated in pooled mouse plasma at 37° C. and samples were removed and immediately analyzed for the concentration of intact peptide by LC/MS/MS over the course of 3 hours. The percent of peptide remaining in plasma at each time point was calculated relative to the initial peak area (Table 12).

From patent US11753445B2, “Therapeutic peptides” (COHBAR, INC., priority 2016, dated 2023) come the findings set out here.

Broadly, the amount remaining is the share of the starting amount still present when the sample was taken.

Peptide text beside a SMILES is read from it.

With `CC[C@H](C)[C@H](NC(=O)[C@H](Cc1ccc(O)cc1)NC(=O)CNC(=O)[C@H](CCSC)NC(=O)[C@H](CCC(=O)O)NC(=O)[C@H](CCC(N)=O)NC(=O)[C@H](Cc1c[nH]c2ccccc12)NC(=O)[C@H](CCCNC(=N)N)NC(=O)[C@@H](N)CCSC)C(=O)N[C@@H](Cc1ccccc1)C(=O)N[C@@H](Cc1ccc(O)cc1)C(=O)N1CCC[C@H]1C(=O)N[C@@H](CCCNC(=N)N)C(=O)N[C@H](C)C(=O)N[C@@H](CC(C)C)C(=O)N[C@@H](CCCNC(=N)N)C(=O)O` [compound 149] (HELM PEPTIDE1{M.R.W.Q.E.M.G.Y.I.F.Y.P.R.[dA].L.R}$$$$V2.0), the “Free Fatty Acid Levels in 3T3-L1 Adipocytes Expressed as a Percent of Isoproterenol Control: Percent of Control Value” in series [1] came to 38.6%. In addition, in series [2], the “Difference from Vehicle Control: Decrease from Baseline in Blood Glucose” value is -11.4 mg/dL, the “Difference from Vehicle Control: Decrease from Baseline in Body Weight (%)” value (“Difference from Vehicle Control: Decrease … (%)” below) is listed as −5.22% and the “Difference from Vehicle Control: Decrease from Baseline in Fat Mass” value was -2.13 g. In series [3], the “% Remaining at Each Time Point: 0 min” value was 100%; the amount remaining at 0.25 h, 10 uM turned out to be 59.3%; the share remaining at 0.5 h, 10 uM was determined as 36.1%; the share remaining at 1 h, 10 uM amounted to 11.1%. In addition, in series [3], the fraction remaining at 2 h, 10 uM was found to be 0.98% and the amount remaining at 3 h, 10 uM was determined as 0.28%.
Consider Ac-MRWQEMGYIFYPR-NH2 [compound 61], for which, in series [1], the “Free Fatty Acid Levels in 3T3-L1 Adipocytes Expressed as a Percent of Isoproterenol Control: Percent of Control Value” turned out to be 92.9%. Besides, in series [4], the “% Remaining at Each Time Point: 0 min” value stood at 100%; the share remaining at 0.25 h, 100 uM amounted to 69.1%; the amount remaining at 0.5 h, 100 uM is 65.8%; the fraction remaining at 1 h, 100 uM was 59.1%. For the same molecule, in series [4], the amount remaining at 2 h, 100 uM came to 43.3% and the amount remaining at 3 h, 100 uM was 29.1%.
With H-ARWQEMGYIFYPRKLR-OH [compound 6], in series [1], the “Free Fatty Acid Levels in 3T3-L1 Adipocytes Expressed as a Percent of Isoproterenol Control: Percent of Control Value” is reported as 58.6%. In series [4], the “% Remaining at Each Time Point: 0 min” value came out at 100%; the fraction remaining at 0.25 h, 100 uM came out at 17.5%; the share remaining at 0.5 h, 100 uM was 19.3%; the share remaining at 1 h, 100 uM amounted to 21.4%. In series [4], the amount remaining at 2 h, 100 uM worked out at 10.9% and the share remaining at 3 h, 100 uM was found to be 6.89%.
On to H-ERWQEAGYIAYPR-OH [compound 241], for which the “Free Fatty Acid Levels in 3T3-L1 Adipocytes Expressed as a Percent of Isoproterenol Control: Percent of Control Value” in series [1] is on record as 50.9%. In addition, in series [2], the “Difference from Vehicle Control: Decrease from Baseline in Blood Glucose” value is -7.00 mg/dL, the “Difference from Vehicle Control: Decrease … (%)” value is reported as −1.49% and the “Difference from Vehicle Control: Decrease from Baseline in Fat Mass” value is -0.34 g. In addition, in series [3], the “% Remaining at Each Time Point: 0 min” value came out at 100%; the fraction remaining at 0.25 h, 10 uM worked out at 98.8%; the fraction remaining at 0.5 h, 10 uM came out at 96.8%; the amount remaining at 1 h, 10 uM came out at 89.5%. Also, in series [3], the share remaining at 2 h, 10 uM amounted to 84.3% and the fraction remaining at 3 h, 10 uM is 80.7%.
In the case of H-MRWQEAGYIFYPRKLR-OH [compound 11], the “Free Fatty Acid Levels in 3T3-L1 Adipocytes Expressed as a Percent of Isoproterenol Control: Percent of Control Value” in series [1] came out at 78.8%. In series [2], the “Difference from Vehicle Control: Decrease from Baseline in Blood Glucose” value is -27.6 mg/dL, the “Difference from Vehicle Control: Decrease … (%)” value was −8.81% and the “Difference from Vehicle Control: Decrease from Baseline in Fat Mass” value was -5.85 g. In series [4], the “% Remaining at Each Time Point: 0 min” value is listed as 100%; the share remaining at 0.25 h, 100 uM stood at 18.3%; the share remaining at 0.5 h, 100 uM turned out to be 17.5%; the fraction remaining at 1 h, 100 uM is 11.5%. In addition, in series [4], the share remaining at 2 h, 100 uM was 5.25% and the share remaining at 3 h, 100 uM came out at 2.38%.
Turning to H-MRWQEEGYIFYPRKLR-OH [compound 172], the “Free Fatty Acid Levels in 3T3-L1 Adipocytes Expressed as a Percent of Isoproterenol Control: Percent of Control Value” in series [1] amounted to 54.2%. Also, in series [2], the “Difference from Vehicle Control: Decrease from Baseline in Blood Glucose” value was -31.5 mg/dL, the “Difference from Vehicle Control: Decrease … (%)” value was −2.48% and the “Difference from Vehicle Control: Decrease from Baseline in Fat Mass” value is -0.77 g. Besides, in series [3], the “% Remaining at Each Time Point: 0 min” value amounted to 100%; the share remaining at 0.25 h, 10 uM worked out at 59.4%; the share remaining at 0.5 h, 10 uM is 33.6%; the amount remaining at 1 h, 10 uM worked out at 6.43%. In addition, in series [3], the share remaining at 2 h, 10 uM was determined as 0.44% and the fraction remaining at 3 h, 10 uM is 0%.
For H-MRWQEMGYIAYPRKLR-OH [compound 15], in series [1], the “Free Fatty Acid Levels in 3T3-L1 Adipocytes Expressed as a Percent of Isoproterenol Control: Percent of Control Value” was 67.9%. Further, in series [4], the “% Remaining at Each Time Point: 0 min” value is reported as 100%; the share remaining at 0.25 h, 100 uM worked out at 19.5%; the amount remaining at 0.5 h, 100 uM came to 18.8%; the amount remaining at 1 h, 100 uM is 21.8%. In series [4], the fraction remaining at 2 h, 100 uM came out at 6.63% and the amount remaining at 3 h, 100 uM came to 0%.
For the molecule H-MRWQEMGYIFYARKLR-OH [compound 17], in series [2], the “Difference from Vehicle Control: Decrease from Baseline in Blood Glucose” value was -2.63 mg/dL, the “Difference from Vehicle Control: Decrease … (%)” value was −2.87% and the “Difference from Vehicle Control: Decrease from Baseline in Fat Mass” value was -0.65 g. For the same molecule, in series [3], the “% Remaining at Each Time Point: 0 min” value stood at 100%; the share remaining at 0.25 h, 10 uM worked out at 46%; the share remaining at 0.5 h, 10 uM was 26.8%; the share remaining at 1 h, 10 uM amounted to 11.9%. In addition, in series [3], the amount remaining at 2 h, 10 uM was 11.3% and the fraction remaining at 3 h, 10 uM worked out at 7.35%.
With H-RWQEMNYIAEPR-OH [compound 251], the “Free Fatty Acid Levels in 3T3-L1 Adipocytes Expressed as a Percent of Isoproterenol Control: Percent of Control Value” in series [1] amounted to 83.7%. In series [2], the “Difference from Vehicle Control: Decrease from Baseline in Blood Glucose” value was -34.3 mg/dL, the “Difference from Vehicle Control: Decrease … (%)” value was −0.55% and the “Difference from Vehicle Control: Decrease from Baseline in Fat Mass” value stood at 0.02 g. Also, in series [3], the “% Remaining at Each Time Point: 0 min” value is recorded as 100%; the amount remaining at 0.25 h, 10 uM is 70.6%; the fraction remaining at 0.5 h, 10 uM was 47.5%; the share remaining at 1 h, 10 uM was 44.4%. In addition, in series [3], the amount remaining at 2 h, 10 uM came to 38.1% and the share remaining at 3 h, 10 uM amounted to 30.2%.
